{
  "source": "the kinase profiling compilation of Christmann-Franck et al. (2016)",
  "experiment_in_all_cases": "KINOMEscan competition binding",
  "settings_in_all_cases": "compound 1.0 µM",
  "key": {"PI4KB (human)": {"molecular_target": "PI4KB (human) (UniProt Q9UBF8)"}, "EIF2AK2 (human)": {"molecular_target": "EIF2AK2 (human) (UniProt P19525)", "sequence (P19525 whole entry, looked up)": "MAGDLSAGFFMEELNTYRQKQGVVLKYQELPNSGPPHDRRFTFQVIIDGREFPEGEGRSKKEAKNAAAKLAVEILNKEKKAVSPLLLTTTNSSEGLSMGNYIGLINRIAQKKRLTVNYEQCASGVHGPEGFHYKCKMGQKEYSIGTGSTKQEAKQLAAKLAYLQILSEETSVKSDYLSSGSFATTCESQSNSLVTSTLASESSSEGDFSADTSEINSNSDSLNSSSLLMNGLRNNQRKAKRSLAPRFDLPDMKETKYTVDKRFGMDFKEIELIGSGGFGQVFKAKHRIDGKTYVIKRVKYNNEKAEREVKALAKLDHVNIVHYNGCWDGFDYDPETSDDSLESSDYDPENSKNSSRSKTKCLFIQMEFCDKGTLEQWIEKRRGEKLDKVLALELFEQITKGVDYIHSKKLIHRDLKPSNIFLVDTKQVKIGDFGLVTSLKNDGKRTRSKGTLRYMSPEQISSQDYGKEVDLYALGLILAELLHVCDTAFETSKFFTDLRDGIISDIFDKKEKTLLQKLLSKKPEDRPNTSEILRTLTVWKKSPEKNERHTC"}, "TNIK (human)": {"molecular_target": "TNIK (human) (UniProt Q9UKE5)", "sequence (Q9UKE5 whole entry, looked up)": "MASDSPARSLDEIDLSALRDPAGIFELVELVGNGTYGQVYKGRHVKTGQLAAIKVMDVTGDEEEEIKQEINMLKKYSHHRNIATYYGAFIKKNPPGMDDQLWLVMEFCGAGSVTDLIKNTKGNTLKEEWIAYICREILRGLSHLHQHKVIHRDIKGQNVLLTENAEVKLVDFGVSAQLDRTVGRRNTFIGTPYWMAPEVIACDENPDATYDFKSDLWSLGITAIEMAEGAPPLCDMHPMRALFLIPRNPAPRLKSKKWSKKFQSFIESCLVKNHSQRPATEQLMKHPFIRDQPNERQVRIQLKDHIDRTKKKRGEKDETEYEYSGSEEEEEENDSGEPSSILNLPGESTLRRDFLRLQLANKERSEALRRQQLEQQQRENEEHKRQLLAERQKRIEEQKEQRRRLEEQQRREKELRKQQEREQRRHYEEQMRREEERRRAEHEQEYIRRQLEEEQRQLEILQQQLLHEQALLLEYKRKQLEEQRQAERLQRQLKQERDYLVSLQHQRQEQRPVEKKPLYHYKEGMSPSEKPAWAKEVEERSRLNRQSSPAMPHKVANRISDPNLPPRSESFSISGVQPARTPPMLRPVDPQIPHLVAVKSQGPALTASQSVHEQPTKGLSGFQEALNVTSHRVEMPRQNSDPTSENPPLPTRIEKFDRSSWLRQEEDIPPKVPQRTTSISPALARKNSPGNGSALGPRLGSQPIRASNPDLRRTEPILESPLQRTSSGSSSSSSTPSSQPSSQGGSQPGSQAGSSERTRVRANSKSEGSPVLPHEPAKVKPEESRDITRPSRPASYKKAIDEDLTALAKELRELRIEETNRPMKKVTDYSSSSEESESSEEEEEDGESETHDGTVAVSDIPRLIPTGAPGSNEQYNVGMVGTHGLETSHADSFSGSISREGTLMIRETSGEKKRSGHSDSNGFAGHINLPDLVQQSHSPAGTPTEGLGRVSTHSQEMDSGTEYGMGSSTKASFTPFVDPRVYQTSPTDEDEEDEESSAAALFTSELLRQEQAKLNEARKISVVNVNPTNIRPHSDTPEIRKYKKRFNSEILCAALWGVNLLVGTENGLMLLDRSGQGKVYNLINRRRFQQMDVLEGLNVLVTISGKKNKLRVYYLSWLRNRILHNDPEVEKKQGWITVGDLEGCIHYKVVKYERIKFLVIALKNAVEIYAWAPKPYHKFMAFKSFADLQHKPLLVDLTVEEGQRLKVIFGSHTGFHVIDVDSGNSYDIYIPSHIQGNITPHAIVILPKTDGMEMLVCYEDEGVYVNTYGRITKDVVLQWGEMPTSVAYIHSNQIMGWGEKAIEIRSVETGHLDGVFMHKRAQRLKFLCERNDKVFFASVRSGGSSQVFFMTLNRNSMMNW"}, "RPS6KA4 KD1 (human)": {"molecular_target": "RPS6KA4 KD1 (human) (UniProt O75676)"}, "AKT2 (human)": {"molecular_target": "AKT2 (human) (UniProt P31751)"}, "TEC (human)": {"molecular_target": "TEC (human) (UniProt P42680)"}, "LATS1 (human)": {"molecular_target": "LATS1 (human) (UniProt O95835)"}, "[1]": {"tested_on": "KIT (human), P10721 [D816V]"}, "CDK8 (human)": {"molecular_target": "CDK8 (human) (UniProt P49336)"}, "CAMK2A (human)": {"molecular_target": "CAMK2A (human) (UniProt Q9UQM7)"}, "EPHB1 (human)": {"molecular_target": "EPHB1 (human) (UniProt P54762)"}, "PRKG1 (human)": {"molecular_target": "PRKG1 (human) (UniProt Q13976)"}, "DYRK1A (human)": {"molecular_target": "DYRK1A (human) (UniProt Q13627)"}, "[2]": {"tested_on": "ABL1 (human), P00519 [Y253F]"}, "[3]": {"molecular_target": "JAK3 JH1 catalytic (human) (UniProt P52333)"}, "[4]": {"tested_on": "ABL1 (human), P00519 [E255K]"}, "SBK1 (human)": {"molecular_target": "SBK1 (human) (UniProt Q52WX2)"}, "ROS1 (human)": {"molecular_target": "ROS1 (human) (UniProt P08922)"}, "PRKACB (human)": {"molecular_target": "PRKACB (human) (UniProt P22694)"}, "CSNK2A2 (human)": {"molecular_target": "CSNK2A2 (human) (UniProt P19784)"}, "PIK3C2B (human)": {"molecular_target": "PIK3C2B (human) (UniProt O00750)", "sequence (O00750 whole entry, looked up)": "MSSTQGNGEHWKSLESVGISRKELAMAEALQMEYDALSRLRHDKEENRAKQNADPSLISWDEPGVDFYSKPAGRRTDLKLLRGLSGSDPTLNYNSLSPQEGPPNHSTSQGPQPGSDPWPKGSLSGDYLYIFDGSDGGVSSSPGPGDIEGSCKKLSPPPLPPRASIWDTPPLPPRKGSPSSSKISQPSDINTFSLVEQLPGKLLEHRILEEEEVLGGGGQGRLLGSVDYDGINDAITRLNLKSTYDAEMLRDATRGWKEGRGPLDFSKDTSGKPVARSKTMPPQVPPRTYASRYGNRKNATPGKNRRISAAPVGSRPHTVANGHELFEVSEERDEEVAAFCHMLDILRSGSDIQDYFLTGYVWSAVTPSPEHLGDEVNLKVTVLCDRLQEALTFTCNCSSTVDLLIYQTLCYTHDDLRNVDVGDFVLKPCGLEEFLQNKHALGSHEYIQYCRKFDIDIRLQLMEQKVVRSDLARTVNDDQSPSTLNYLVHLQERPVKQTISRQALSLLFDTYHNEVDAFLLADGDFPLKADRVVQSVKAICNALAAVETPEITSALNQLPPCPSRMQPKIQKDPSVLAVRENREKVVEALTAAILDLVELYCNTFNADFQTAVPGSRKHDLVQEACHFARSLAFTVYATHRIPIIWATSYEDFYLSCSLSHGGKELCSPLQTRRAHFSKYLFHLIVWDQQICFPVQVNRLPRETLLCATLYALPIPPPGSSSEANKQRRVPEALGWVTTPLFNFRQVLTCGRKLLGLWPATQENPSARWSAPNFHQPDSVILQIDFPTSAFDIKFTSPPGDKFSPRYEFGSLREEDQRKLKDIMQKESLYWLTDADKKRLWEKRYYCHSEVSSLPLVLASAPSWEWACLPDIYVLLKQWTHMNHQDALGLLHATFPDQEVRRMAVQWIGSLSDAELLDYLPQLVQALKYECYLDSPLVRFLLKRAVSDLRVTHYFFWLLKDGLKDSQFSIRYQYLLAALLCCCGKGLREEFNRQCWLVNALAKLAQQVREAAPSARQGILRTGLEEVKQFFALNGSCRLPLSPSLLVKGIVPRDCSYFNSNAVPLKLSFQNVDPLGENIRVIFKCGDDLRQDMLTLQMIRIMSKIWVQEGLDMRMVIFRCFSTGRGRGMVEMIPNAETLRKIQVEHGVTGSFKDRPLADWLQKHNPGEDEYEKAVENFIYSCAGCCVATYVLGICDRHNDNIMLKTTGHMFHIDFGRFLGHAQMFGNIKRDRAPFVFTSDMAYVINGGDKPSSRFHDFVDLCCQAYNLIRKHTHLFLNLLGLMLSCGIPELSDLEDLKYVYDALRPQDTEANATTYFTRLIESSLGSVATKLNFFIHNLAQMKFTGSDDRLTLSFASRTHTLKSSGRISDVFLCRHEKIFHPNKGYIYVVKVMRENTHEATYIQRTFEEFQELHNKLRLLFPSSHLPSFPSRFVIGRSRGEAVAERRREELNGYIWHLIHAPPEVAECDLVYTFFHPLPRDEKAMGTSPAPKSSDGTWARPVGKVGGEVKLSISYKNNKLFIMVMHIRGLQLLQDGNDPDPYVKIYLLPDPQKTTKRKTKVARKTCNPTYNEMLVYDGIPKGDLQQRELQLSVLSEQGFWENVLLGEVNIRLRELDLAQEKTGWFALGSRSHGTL"}, "PRKACA (human)": {"molecular_target": "PRKACA (human) (UniProt P17612)"}, "[5]": {"tested_on": "KIT (human), P10721 [L576P]"}, "MAPK10 (human)": {"molecular_target": "MAPK10 (human) (UniProt P53779)"}, "BMPR2 (human)": {"molecular_target": "BMPR2 (human) (UniProt Q13873)"}, "AURKB (human)": {"molecular_target": "AURKB (human) (UniProt Q96GD4)"}, "MARK3 (human)": {"molecular_target": "MARK3 (human) (UniProt P27448)"}, "LTK (human)": {"molecular_target": "LTK (human) (UniProt P29376)"}, "EPHA1 (human)": {"molecular_target": "EPHA1 (human) (UniProt P21709)"}, "YES1 (human)": {"molecular_target": "YES1 (human) (UniProt P07947)"}, "NEK4 (human)": {"molecular_target": "NEK4 (human) (UniProt P51957)", "sequence (P51957 whole entry, looked up)": "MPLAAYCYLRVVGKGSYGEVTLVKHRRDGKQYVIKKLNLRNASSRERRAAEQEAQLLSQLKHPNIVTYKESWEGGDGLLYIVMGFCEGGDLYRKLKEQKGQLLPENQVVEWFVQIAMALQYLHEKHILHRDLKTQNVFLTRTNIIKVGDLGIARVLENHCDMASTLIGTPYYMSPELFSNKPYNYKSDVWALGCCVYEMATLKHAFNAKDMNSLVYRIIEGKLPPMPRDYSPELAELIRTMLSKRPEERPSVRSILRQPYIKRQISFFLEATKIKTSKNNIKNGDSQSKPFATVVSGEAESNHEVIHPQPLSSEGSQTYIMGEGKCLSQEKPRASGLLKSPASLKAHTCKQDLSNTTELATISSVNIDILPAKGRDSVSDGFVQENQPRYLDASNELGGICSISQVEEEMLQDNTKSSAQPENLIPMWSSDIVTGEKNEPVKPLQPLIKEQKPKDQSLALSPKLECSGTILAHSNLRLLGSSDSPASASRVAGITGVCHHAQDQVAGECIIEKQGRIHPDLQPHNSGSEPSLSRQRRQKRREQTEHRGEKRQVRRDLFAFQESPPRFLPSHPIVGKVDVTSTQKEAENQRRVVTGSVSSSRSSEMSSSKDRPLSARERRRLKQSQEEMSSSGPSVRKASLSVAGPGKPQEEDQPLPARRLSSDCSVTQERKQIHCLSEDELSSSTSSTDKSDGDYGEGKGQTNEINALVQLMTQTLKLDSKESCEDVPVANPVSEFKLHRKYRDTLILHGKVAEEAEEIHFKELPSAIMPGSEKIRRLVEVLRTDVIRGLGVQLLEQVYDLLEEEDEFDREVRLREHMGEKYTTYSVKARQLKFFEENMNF"}, "NLK (human)": {"molecular_target": "NLK (human) (UniProt Q9UBE8)"}, "MST1R (human)": {"molecular_target": "MST1R (human) (UniProt Q04912)"}, "MAPK4 (human)": {"molecular_target": "MAPK4 (human) (UniProt P31152)", "sequence (P31152 whole entry, looked up)": "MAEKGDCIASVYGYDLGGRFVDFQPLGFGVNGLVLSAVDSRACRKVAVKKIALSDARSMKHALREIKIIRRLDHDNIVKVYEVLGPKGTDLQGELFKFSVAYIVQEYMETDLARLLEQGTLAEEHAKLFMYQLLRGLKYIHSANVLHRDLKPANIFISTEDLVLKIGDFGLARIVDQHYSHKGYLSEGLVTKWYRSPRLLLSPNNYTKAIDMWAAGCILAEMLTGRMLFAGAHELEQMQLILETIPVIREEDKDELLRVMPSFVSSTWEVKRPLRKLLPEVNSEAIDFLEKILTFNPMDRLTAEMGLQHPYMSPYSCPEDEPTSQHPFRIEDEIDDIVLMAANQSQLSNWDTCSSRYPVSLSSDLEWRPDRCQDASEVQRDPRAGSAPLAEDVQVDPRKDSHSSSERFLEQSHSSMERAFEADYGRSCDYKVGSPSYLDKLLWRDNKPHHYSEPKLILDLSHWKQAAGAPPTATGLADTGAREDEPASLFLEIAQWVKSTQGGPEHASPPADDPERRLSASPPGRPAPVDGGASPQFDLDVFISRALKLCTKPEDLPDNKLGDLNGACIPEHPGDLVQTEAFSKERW"}, "TGFBR2 (human)": {"molecular_target": "TGFBR2 (human) (UniProt P37173)"}, "RIPK2 (human)": {"molecular_target": "RIPK2 (human) (UniProt O43353)"}, "MARK2 (human)": {"molecular_target": "MARK2 (human) (UniProt Q7KZI7)"}, "TAOK2 (human)": {"molecular_target": "TAOK2 (human) (UniProt Q9UL54)"}, "MAPK3 (human)": {"molecular_target": "MAPK3 (human) (UniProt P27361)"}},
  "data": [
    {"compound": "CNc1nc(Nc2ccc(C(=O)N3CCOCC3)cc2OC)ncc1Cl", "values": [
      {"measurement": "kinase still bound, per cent of control", "setting": "PI4KB (human)", "result": 100, "unit": "%"},
      {"measurement": "kinase still bound, per cent of control", "setting": "EIF2AK2 (human)", "result": 100, "unit": "%"},
      {"measurement": "kinase still bound, per cent of control", "setting": "TNIK (human)", "result": 100, "unit": "%"},
      {"measurement": "kinase still bound, per cent of control", "setting": "RPS6KA4 KD1 (human)", "result": 89, "unit": "%"},
      {"measurement": "kinase still bound, per cent of control", "setting": "AKT2 (human)", "result": 100, "unit": "%"},
      {"measurement": "kinase still bound, per cent of control", "setting": "TEC (human)", "result": 100, "unit": "%"},
      {"measurement": "kinase still bound, per cent of control", "setting": "LATS1 (human)", "result": 100, "unit": "%"},
      {"measurement": "kinase still bound, per cent of control", "setting": "[1]", "result": 98, "unit": "%"},
      {"measurement": "residual activity", "setting": "CDK8 (human)", "result": 100, "unit": "%"},
      {"measurement": "kinase still bound, per cent of control", "setting": "CAMK2A (human)", "result": 76, "unit": "%"},
      {"measurement": "kinase still bound, per cent of control", "setting": "EPHB1 (human)", "result": 100, "unit": "%"},
      {"measurement": "kinase still bound, per cent of control", "setting": "PRKG1 (human)", "result": 82, "unit": "%"},
      {"measurement": "kinase still bound, per cent of control", "setting": "DYRK1A (human)", "result": 100, "unit": "%"},
      {"measurement": "kinase still bound, per cent of control", "setting": "[2]", "result": 69, "unit": "%"},
      {"measurement": "kinase still bound, per cent of control", "setting": "[3]", "result": 90, "unit": "%"},
      {"measurement": "kinase still bound, per cent of control", "setting": "[4]", "result": 52, "unit": "%"},
      {"measurement": "kinase still bound, per cent of control", "setting": "SBK1 (human)", "result": 100, "unit": "%"},
      {"measurement": "kinase still bound, per cent of control", "setting": "ROS1 (human)", "result": 100, "unit": "%"},
      {"measurement": "residual activity", "setting": "PRKACB (human)", "result": 84, "unit": "%"},
      {"measurement": "kinase still bound, per cent of control", "setting": "CSNK2A2 (human)", "result": 74, "unit": "%"},
      {"measurement": "kinase still bound, per cent of control", "setting": "PIK3C2B (human)", "result": 96, "unit": "%"},
      {"measurement": "residual activity", "setting": "PRKACA (human)", "result": 100, "unit": "%"},
      {"measurement": "kinase still bound, per cent of control", "setting": "[5]", "result": 9.4, "unit": "%"},
      {"measurement": "kinase still bound, per cent of control", "setting": "MAPK10 (human)", "result": 42, "unit": "%"},
      {"measurement": "kinase still bound, per cent of control", "setting": "BMPR2 (human)", "result": 85, "unit": "%"},
      {"measurement": "kinase still bound, per cent of control", "setting": "AURKB (human)", "result": 100, "unit": "%"},
      {"measurement": "kinase still bound, per cent of control", "setting": "MARK3 (human)", "result": 98, "unit": "%"},
      {"measurement": "kinase still bound, per cent of control", "setting": "LTK (human)", "result": 50, "unit": "%"},
      {"measurement": "kinase still bound, per cent of control", "setting": "EPHA1 (human)", "result": 100, "unit": "%"},
      {"measurement": "kinase still bound, per cent of control", "setting": "YES1 (human)", "result": 100, "unit": "%"},
      {"measurement": "kinase still bound, per cent of control", "setting": "NEK4 (human)", "result": 87, "unit": "%"},
      {"measurement": "kinase still bound, per cent of control", "setting": "NLK (human)", "result": 100, "unit": "%"},
      {"measurement": "kinase still bound, per cent of control", "setting": "MST1R (human)", "result": 100, "unit": "%"},
      {"measurement": "kinase still bound, per cent of control", "setting": "MAPK4 (human)", "result": 100, "unit": "%"},
      {"measurement": "kinase still bound, per cent of control", "setting": "TGFBR2 (human)", "result": 100, "unit": "%"},
      {"measurement": "kinase still bound, per cent of control", "setting": "RIPK2 (human)", "result": 54, "unit": "%"},
      {"measurement": "kinase still bound, per cent of control", "setting": "MARK2 (human)", "result": 100, "unit": "%"},
      {"measurement": "kinase still bound, per cent of control", "setting": "TAOK2 (human)", "result": 88, "unit": "%"},
      {"measurement": "kinase still bound, per cent of control", "setting": "MAPK3 (human)", "result": 100, "unit": "%"}
    ]}
  ]
}
